# Measurements as given in ChEMBL document CHEMBL1128468, “Amino acid side chain descriptors for quantitative structure-activity relationship studies of peptide analogues” (J Med Chem, 1995).
# Peptide text beside a SMILES is read from it.
# Biological target: T1, Substance-K receptor (Rattus norvegicus, UniProt P16610)
# T1 sequence (P16610 whole entry): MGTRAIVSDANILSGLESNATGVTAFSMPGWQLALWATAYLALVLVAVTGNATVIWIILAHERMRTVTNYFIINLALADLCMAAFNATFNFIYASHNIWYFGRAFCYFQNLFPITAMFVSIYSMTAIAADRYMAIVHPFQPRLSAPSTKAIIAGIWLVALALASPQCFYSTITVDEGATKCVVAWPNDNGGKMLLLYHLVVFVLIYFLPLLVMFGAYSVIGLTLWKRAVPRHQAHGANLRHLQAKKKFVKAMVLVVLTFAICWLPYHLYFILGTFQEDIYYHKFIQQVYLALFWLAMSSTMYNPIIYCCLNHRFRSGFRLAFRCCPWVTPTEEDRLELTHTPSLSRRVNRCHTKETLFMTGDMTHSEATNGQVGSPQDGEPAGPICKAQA
# Experiment: Antagonism against Tachykinin receptor 2 in rat vas deferens(RVD)
# Format: functional
# Details: read-out: pA2 (converted)
row,Molecule,Kb [nM]
1,CC(C)C[C@H](NC(=O)[C@@H](Cc1c[nH]c2ccccc12)NC(=O)[C@@H](Cc1c[nH]c2ccccc12)NC(=O)[C@@H](NC(=O)[C@@H](Cc1c[nH]c2ccccc12)NC(=O)[C@H](Cc1ccc(O)cc1)NC(=O)[C@@H](N)CC(=O)O)C(C)C)C(=O)O,79.4

# Biological target: T2, Substance-K receptor (Mesocricetus auratus, UniProt P51144)
# T2 sequence (P51144 whole entry): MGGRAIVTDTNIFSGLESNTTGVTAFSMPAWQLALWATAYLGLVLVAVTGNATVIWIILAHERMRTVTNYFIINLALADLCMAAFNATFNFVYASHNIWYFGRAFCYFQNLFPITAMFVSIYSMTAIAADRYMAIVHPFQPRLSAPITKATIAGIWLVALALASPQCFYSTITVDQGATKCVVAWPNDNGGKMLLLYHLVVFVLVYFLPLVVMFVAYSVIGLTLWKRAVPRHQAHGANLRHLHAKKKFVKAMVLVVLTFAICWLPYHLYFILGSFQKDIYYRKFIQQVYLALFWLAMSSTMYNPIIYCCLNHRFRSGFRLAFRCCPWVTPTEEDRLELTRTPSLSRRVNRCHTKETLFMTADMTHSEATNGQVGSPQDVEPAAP
# Experiment: Antagonist activity against Tachykinin receptor 2 was measured by Hamster isolated trachea(HT) assay.
# Format: functional, tissue-based
# Details: read-out: pA2 (converted)
row,Molecule,Kb [nM]
1,CC(C)C[C@H](NC(=O)[C@@H](Cc1c[nH]c2ccccc12)NC(=O)[C@@H](Cc1c[nH]c2ccccc12)NC(=O)[C@@H](NC(=O)[C@@H](Cc1c[nH]c2ccccc12)NC(=O)[C@H](Cc1ccc(O)cc1)NC(=O)[C@@H](N)CC(=O)O)C(C)C)C(=O)O,1200
2,CC(C)[C@H](NC(=O)[C@@H](Cc1c[nH]c2ccccc12)NC(=O)[C@H](Cc1ccc(O)cc1)NC(=O)[C@@H](N)CCC(N)=O)C(=O)N[C@H](Cc1c[nH]c2ccccc12)C(=O)N[C@H](Cc1c[nH]c2ccccc12)C(=O)N[C@@H](Cc1ccccc1)C(=O)O,1740
3,CC(C)[C@H](NC(=O)[C@@H](Cc1c[nH]c2ccccc12)NC(=O)[C@H](CCCCN)NC(=O)[C@@H](N)CC(=O)O)C(=O)N[C@H](Cc1c[nH]c2ccccc12)C(=O)N[C@H](Cc1c[nH]c2ccccc12)C(=O)N[C@@H](CCCCN)C(=O)O,4170

# Tested on: not listed separately
# Experiment: Biological activity for bradykinin potentiating pentapeptide as the logarithm of the relative activity index compared to the reference molecule (Val-Glu-Ser-Ser-Lys).
# Format: functional
# Details: not given
row,Molecule,Log RAI
1,H-VEHAK-OH,1.53
2,H-EKWAP-OH,1.3
3,H-VKWAA-OH,1.71
4,H-VKWAP-OH,2.35
5,H-GEAAK-OH,-0.52
6,H-VEGGK-OH,-1
7,H-VEAAK-OH,0.51
8,H-VEWVK-OH,1.71
9,C[C@H](N)C(=O)N[C@@H](C)C(=O)N[C@@H](C)C(=O)N[C@@H](C)C(=O)N[C@@H](C)C(=O)O,-0.1
10,H-RKWAP-OH,1.98
11,H-FEAAK-OH,0.3
12,H-VEFAK-OH,1.57
13,H-PGFSP-OH,0.9
14,H-VEASK-OH,0.2
15,H-VAAAK-OH,-0.1
16,H-VAAWK-OH,0.23

row,Molecule,Log RAI
1,NCC(=O)NCC(=O)NCC(=O)NCC(=O)NCC(=O)O,0
2,H-VEAAP-OH,0.18
3,H-VAWAA-OH,1.43
4,H-AAWAA-OH,0.75
5,H-VWAAK-OH,0.04
6,H-VAWAK-OH,1.45
7,H-VESAK-OH,0.28
8,H-VEWAK-OH,2.73
9,H-LEAAK-OH,0.4
10,C[C@H](N)C(=O)N[C@@H](C)C(=O)N[C@@H](Cc1ccc(O)cc1)C(=O)N[C@@H](C)C(=O)N[C@@H](C)C(=O)O,0.46
11,H-RYLPT-OH,0.4
12,H-VESSK-OH,0
13,H-VELAK-OH,0.59
14,H-VKAAK-OH,0.11
15,H-FSPFR-OH,0.64

# Biological target: T3, Substance-K receptor (Oryctolagus cuniculus, UniProt P79218)
# T3 sequence (P79218 whole entry): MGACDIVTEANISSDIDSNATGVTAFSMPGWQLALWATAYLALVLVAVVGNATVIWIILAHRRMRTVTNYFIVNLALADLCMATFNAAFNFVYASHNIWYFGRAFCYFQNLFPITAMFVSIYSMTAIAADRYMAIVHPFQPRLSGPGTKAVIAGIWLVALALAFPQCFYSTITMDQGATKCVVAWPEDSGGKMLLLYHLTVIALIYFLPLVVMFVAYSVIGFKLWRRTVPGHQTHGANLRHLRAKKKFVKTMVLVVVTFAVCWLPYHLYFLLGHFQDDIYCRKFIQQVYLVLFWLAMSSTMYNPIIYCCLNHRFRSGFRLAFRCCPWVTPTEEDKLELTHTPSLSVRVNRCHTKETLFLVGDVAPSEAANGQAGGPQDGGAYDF
# Experiment: Antagonist activity against Tachykinin receptor 2 was measured by Rabbit pulmonary artery(RPA) assay.
# Format: functional
# Details: read-out: pA2 (converted)
row,Molecule,Kb [nM]
1,CC(C)C[C@H](NC(=O)[C@@H](Cc1c[nH]c2ccccc12)NC(=O)[C@@H](Cc1c[nH]c2ccccc12)NC(=O)[C@@H](NC(=O)[C@@H](Cc1c[nH]c2ccccc12)NC(=O)[C@H](Cc1ccc(O)cc1)NC(=O)[C@@H](N)CC(=O)O)C(C)C)C(=O)O,1620
2,CC(C)[C@H](NC(=O)[C@@H](Cc1c[nH]c2ccccc12)NC(=O)[C@H](Cc1ccc(O)cc1)NC(=O)[C@@H](N)CCC(N)=O)C(=O)N[C@H](Cc1c[nH]c2ccccc12)C(=O)N[C@H](Cc1c[nH]c2ccccc12)C(=O)N[C@@H](Cc1ccccc1)C(=O)O,1660
3,CC(C)[C@H](NC(=O)[C@@H](Cc1c[nH]c2ccccc12)NC(=O)[C@H](CCCCN)NC(=O)[C@@H](N)CC(=O)O)C(=O)N[C@H](Cc1c[nH]c2ccccc12)C(=O)N[C@H](Cc1c[nH]c2ccccc12)C(=O)N[C@@H](CCCCN)C(=O)O,100000

# Biological target: Angiotensin-converting enzyme (Homo sapiens, UniProt P12821)
# Sequence (P12821 whole entry): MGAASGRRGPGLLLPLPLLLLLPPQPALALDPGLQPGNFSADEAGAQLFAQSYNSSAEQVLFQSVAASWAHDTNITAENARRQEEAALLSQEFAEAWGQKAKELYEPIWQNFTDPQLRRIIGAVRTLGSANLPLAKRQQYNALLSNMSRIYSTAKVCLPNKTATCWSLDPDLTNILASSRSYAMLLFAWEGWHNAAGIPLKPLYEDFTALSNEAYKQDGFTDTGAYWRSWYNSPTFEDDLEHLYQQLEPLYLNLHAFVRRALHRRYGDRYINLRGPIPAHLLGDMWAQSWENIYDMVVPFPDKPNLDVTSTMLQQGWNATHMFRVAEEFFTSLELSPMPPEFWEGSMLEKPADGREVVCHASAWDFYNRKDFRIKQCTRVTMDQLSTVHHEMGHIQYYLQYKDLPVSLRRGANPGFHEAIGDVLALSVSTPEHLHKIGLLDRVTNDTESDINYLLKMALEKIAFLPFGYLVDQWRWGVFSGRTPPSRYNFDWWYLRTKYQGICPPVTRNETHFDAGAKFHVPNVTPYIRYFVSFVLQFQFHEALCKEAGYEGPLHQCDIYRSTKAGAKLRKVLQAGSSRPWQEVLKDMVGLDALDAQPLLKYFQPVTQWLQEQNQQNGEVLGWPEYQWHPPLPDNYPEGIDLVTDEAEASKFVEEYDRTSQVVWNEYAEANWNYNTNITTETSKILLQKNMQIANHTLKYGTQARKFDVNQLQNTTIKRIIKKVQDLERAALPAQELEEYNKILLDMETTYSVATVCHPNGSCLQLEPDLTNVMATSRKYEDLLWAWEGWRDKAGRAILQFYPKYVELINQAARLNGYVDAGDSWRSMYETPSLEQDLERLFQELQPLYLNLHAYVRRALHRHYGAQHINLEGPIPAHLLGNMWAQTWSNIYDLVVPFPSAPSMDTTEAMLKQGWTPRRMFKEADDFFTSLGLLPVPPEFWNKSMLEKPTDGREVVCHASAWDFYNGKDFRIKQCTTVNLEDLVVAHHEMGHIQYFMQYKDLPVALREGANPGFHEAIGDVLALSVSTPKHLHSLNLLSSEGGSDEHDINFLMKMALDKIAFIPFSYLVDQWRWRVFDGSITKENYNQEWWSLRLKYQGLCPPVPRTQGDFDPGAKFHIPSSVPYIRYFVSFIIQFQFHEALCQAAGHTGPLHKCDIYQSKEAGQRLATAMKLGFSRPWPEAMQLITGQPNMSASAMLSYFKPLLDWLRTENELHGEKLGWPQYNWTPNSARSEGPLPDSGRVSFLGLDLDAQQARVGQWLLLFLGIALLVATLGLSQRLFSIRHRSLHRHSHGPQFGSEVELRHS
# Experiment: Biological activity was measured against Angiotensin I converting enzyme
# Details: read-out: Log 1/IC50 (converted)
row,Molecule,IC50 [mM]
1,NC(=O)CC[C@H](N)C(=O)NCC(=O)O (H-Gln-Gly-OH),7.41
2,CC[C@H](C)[C@H](N)C(=O)N[C@@H](Cc1c[nH]c2ccccc12)C(=O)O,0.002
3,N[C@@H](Cc1c[nH]c2ccccc12)C(=O)NCC(=O)O (H-Trp-Gly-OH),5.89
4,N=C(N)NCCC[C@H](N)C(=O)N[C@@H](Cc1ccccc1)C(=O)O,0.229
5,C[C@H](NC(=O)[C@@H](N)CCCN=C(N)N)C(=O)O (H-Arg-Ala-OH),0.457
6,C[C@H](N)C(=O)N[C@@H](Cc1c[nH]c2ccccc12)C(=O)O (H-Ala-Trp-OH),0.01
7,C[C@@H](O)[C@H](NC(=O)CN)C(=O)O (H-Gly-Thr-OH),5.75
8,C[C@H](N)C(=O)N[C@@H](C)C(=O)O (H-Ala-Ala-OH),0.617
9,C[C@H](NC(=O)[C@@H](N)CCC(=O)O)C(=O)O (H-Glu-Ala-OH),10
10,CC(C)C[C@H](NC(=O)[C@@H](N)Cc1c[nH]cn1)C(=O)O (H-His-Leu-OH),3.24
11,C[C@H](NC(=O)[C@@H](N)CCCCN)C(=O)O (H-Lys-Ala-OH),0.38
12,"CC[C@H](C)[C@H](N)C(=O)N1CCCC1C(=O)O (single isomer, unassigned)",0.129
13,CC(C)[C@H](N)C(=O)NCC(=O)O [VAL-GLY] (H-Val-Gly-OH),1.1
14,NCC(=O)N[C@@H](CC(=O)O)C(=O)O (H-Gly-Asp-OH),9.12
15,CC(C)[C@H](N)C(=O)N[C@@H](Cc1ccc(O)cc1)C(=O)O (H-Val-Tyr-OH),0.0219
16,N=C(N)NCCC[C@H](NC(=O)[C@@H](N)Cc1ccccc1)C(=O)O (H-Phe-Arg-OH),0.912
17,N[C@@H](CO)C(=O)NCC(=O)O (H-Ser-Gly-OH),8.51
18,NCCCC[C@H](NC(=O)CN)C(=O)O (H-Gly-Lys-OH),5.37
19,N[C@@H](Cc1c[nH]cn1)C(=O)NCC(=O)O (H-His-Gly-OH),6.31
20,CSCC[C@H](NC(=O)CN)C(=O)O,1.41
21,NCC(=O)NCC(=O)O (H-Gly-Gly-OH),7.24
22,C[C@H](N)C(=O)N[C@@H](Cc1ccc(O)cc1)C(=O)O (H-Ala-Tyr-OH),0.0871
23,C[C@H](O)[C@H](N)C(=O)NCC(=O)O,10

row,Molecule,IC50 [mM]
1,NCC(=O)N[C@@H](CCC(N)=O)C(=O)O (H-Gly-Gln-OH),7.08
2,NC(N)=NCCC[C@H](N)C(=O)N[C@@H](Cc1c[nH]c2ccccc12)C(=O)O (H-Arg-Trp-OH),0.0158
3,CC(C)C[C@H](N)C(=O)NCC(=O)O (H-Leu-Gly-OH),8.71
4,N[C@@H](CC(=O)O)C(=O)NCC(=O)O (H-Asp-Gly-OH),14.1
5,CC(C)C[C@H](N)C(=O)N[C@@H](C)C(=O)O [LEU-ALA] (H-Leu-Ala-OH),0.309
6,N=C(N)NCCC[C@H](N)C(=O)N1CCC[C@@H]1C(=O)O,0.182
7,NCC(=O)N[C@@H](Cc1c[nH]cn1)C(=O)O (H-Gly-His-OH),3.09
8,C[C@H](NC(=O)[C@@H](N)CC(=O)O)C(=O)O (H-Asp-Ala-OH),3.8
9,CC[C@H](C)[C@H](NC(=O)CN)C(=O)O (H-Gly-Ile-OH),1.2
10,N[C@@H](CCC(=O)O)C(=O)NCC(=O)O (H-Glu-Gly-OH),10
11,NCC(=O)N[C@@H](CO)C(=O)O (H-Gly-Ser-OH),3.8
12,NCC(=O)N[C@@H](Cc1c[nH]c2ccccc12)C(=O)O (H-Gly-Trp-OH),0.0302
13,CC[C@H](C)[C@H](N)C(=O)NCC(=O)O (H-Ile-Gly-OH),1.2
14,C[C@H](NC(=O)[C@@H](N)Cc1ccc(O)cc1)C(=O)O,0.457
15,C[C@H](N)C(=O)NCC(=O)O (H-Ala-Gly-OH),2.51
16,N=C(N)NCCC[C@H](NC(=O)CN)C(=O)O (H-Gly-Arg-OH),3.24
17,NCC(=O)N[C@@H](CCC(=O)O)C(=O)O (H-Gly-Glu-OH),5.37
18,NCC(=O)N[C@@H](Cc1ccc(O)cc1)C(=O)O (H-Gly-Tyr-OH),0.209
19,C[C@H](NC(=O)CN)C(=O)O (H-Gly-Ala-OH),2
20,CC(C)[C@H](NC(=O)CN)C(=O)O (H-Gly-Val-OH),4.57
21,NCCCC[C@H](N)C(=O)NCC(=O)O (H-Lys-Gly-OH),3.24
22,CC[C@H](C)[C@H](N)C(=O)N[C@@H](Cc1ccccc1)C(=O)O (H-Ile-Phe-OH),0.933
23,CSCC[C@H](N)C(=O)NCC(=O)O (H-Met-Gly-OH),4.79
